{
  "source": "patent US10286057B2",
  "about": "“Cyclic HIV-1 Env V3 glycopeptide immunogens” (DUKE UNIVERSITY, priority 2013, dated 2019)",
  "key": {"BnAb PG9 [1]": {"tested_on": "BnAb PG9", "assay": "SPR (Biacore) binding of V1V2 antigens to BnAb PG9", "conditions": "FIG. 1B, antigen 200 μg/ml", "procedure": "(§1) FIGS. 1A-1E. Initial evaluation of synthetic V1V2 glycopeptide constructs. […] Surface plasmon reasonance (SPR) analysis of the interaction of V1V2 Man5GlcNAc2 (green), Man3GlcNAc2 (red), GlcNAc2 (blue), or aglycone (magenta) antigens with BnAbs PG9 (FIG. 1B), CH01 (FIG. 1C), or their respective umutated common ancestor (UCA) antibodies, PG9 UCA (FIG. 1D), and CH01-04 UCA (FIG. 1E). Concentration of antigens was 200 μg/ml for FIGS. […], and 100 μg/ml for FIGS. 1D and 1E, RU=response units\n(§2) Using chemical methods (see, for example, those referenced above), a set of homogeneous V1V2 glycopeptides bearing Man3GlcNAc2, Man5GlcNAc2, and GlcNAc2 N-glycans were synthesized de novo (FIG. 1A). […] Importantly, binding by the naked “aglycone” (FIGS. 1B,C) or the solitary protein-free Man3 and Man5 oligosaccharides (data not shown) was not observed."}, "BnAb CH01 [2]": {"tested_on": "BnAb CH01", "assay": "SPR (Biacore) binding of V1V2 antigens to BnAb CH01", "conditions": "FIG. 1C, antigen 200 μg/ml", "procedure": "as §1, §2"}, "RV144 mAb CH58": {"tested_on": "RV144 mAb CH58", "assay": "Reactivity of RV144 mAb CH58 toward V1V2 glycopeptides", "format": "binding", "conditions": "data not shown", "description": "(§3) This is the first antigen known to bind to the PG9 UCA. […] Thus, these two V1V2 peptide-glycans have selective reactivity toward the V1V2 BnAbs, and react poorly or not at all with the CH58 mature and UCA antibodies. Therefore, these V1V2 peptide-glycan immunogens are prime candidates for selective induction of V1V2 BnAb lineages that are normally sub-dominant with infrequent UCAs."}, "CH58 UCA": {"tested_on": "CH58 UCA", "assay": "Reactivity of CH58 UCA toward V1V2 glycopeptides", "format": "binding", "conditions": "data not shown", "description": "as §3"}, "CH01-04 UCA": {"tested_on": "CH01-04 UCA", "assay": "SPR binding of V1V2 antigens to CH01 UCA", "conditions": "FIG. 1E, antigen 100 μg/ml", "procedure": "as §1, §3"}, "PG9 UCA": {"tested_on": "PG9 UCA", "assay": "SPR binding of V1V2 antigens to PG9 UCA", "conditions": "FIG. 1D, antigen 100 μg/ml", "procedure": "as §1, §3"}, "BnAb PG9 [3]": {"tested_on": "BnAb PG9", "conditions": "from previous work; cited from earlier work"}, "BnAb CH01 [4]": {"tested_on": "BnAb CH01", "conditions": "from previous work; cited from earlier work"}, "V1V2 mAb PGT145": {"tested_on": "V1V2 mAb PGT145", "assay": "Binding to V1V2 mAb PGT145", "conditions": "FIG. 13D", "description": "(§4) FIG. 13A-D show binding of PGT mAbs to synthetic Man9GlcNAc2 glycan. Binding of V3 Bnab to Man9 glycan. […] Thus, the binding of Man9GlcnAc2 glycan was detected only for V3-glycan dependent PGT BNAbs."}, "PGT128 [5]": {"tested_on": "PGT128", "assay": "SPR binding to captured mAb PGT128", "conditions": "FIG. 13A", "description": "(§5) Both PGT128 and PGT125 are dependent on Man9 glycans on position N332 and N301 (Pejchal et al., 2011), with N332 being the primary glycan.\n(§6) Binding of V3 Bnab to Man9 glycan."}, "2G12": {"tested_on": "2G12", "assay": "Binding to mAb 2G12", "conditions": "FIG. 13C", "description": "as §4\nFIGS. 11-13 depict various experimental data showing that synthetic glycopeptides, such as for example the peptide of FIG. 1, can show differential binding to bnAbs vs non-neutralizing antibodies. […] Both 2G12 mAb and 2G12 UCA bound well to Man5 V1V2 dimer, indicating recognition of the glycan cluster on a V2 backbone."}, "PGT125": {"tested_on": "PGT125", "assay": "SPR binding to captured mAb PGT125", "conditions": "FIG. 13B", "description": "as §5, §6"}, "[6]": {"tested_on": "V3 loop non-neutralizing mAb 19b", "assay": "SPR binding to captured V3 loop non-neutralizing mAb 19b", "conditions": "FIG. 12 and FIG. 13D", "description": "as §5, §6"}, "PGTs 125-128 and 130": {"tested_on": "PGTs 125-128 and 130", "conditions": "cited from earlier work"}, "PGT128 [7]": {"tested_on": "PGT128", "conditions": "protein-free glycan; cited from earlier work"}},
  "note": "Ends that are not written are not given here. * marks the point of attachment. Man3GlcNAc2 = CC(=O)N[C@@H]1[C@@H](O)[C@H](O[C@@H]2O[C@H](CO)[C@@H](O[C@@H]3O[C@H](CO[C@H]4O[C@H](CO)[C@@H](O)[C@H](O)[C@@H]4O)[C@@H](O)[C@H](O[C@H]4O[C@H](CO)[C@@H](O)[C@H](O)[C@@H]4O)[C@@H]3O)[C@H](O)[C@H]2NC(C)=O)[C@@H](CO)O[C@H]1*",
  "data": [
    {"compound": "Man5GlcNAc2 [Man5 oligosaccharide]", "values": [
      {"measurement": "binding to BnAb PG9", "setting": "BnAb PG9 [1]", "result": "not observed"},
      {"measurement": "binding to BnAb CH01", "setting": "BnAb CH01 [2]", "result": "not observed"}
    ]},
    {"compound": "Man3 construct: V1V2 glycopeptide (SEQ ID NO: 9, AE.CM244/A244) bearing two N-linked Man3GlcNAc2 at N160 and N156 (ITDEVRN(Man3GlcNAc2)CSFN(Man3GlcNAc2)MTTELRDKKQKVHALFYKLDIVPI)", "values": [
      {"measurement": "reactivity of mAb CH58", "setting": "RV144 mAb CH58", "result": "only weak reactivity"},
      {"measurement": "reactivity of CH58 UCA", "setting": "CH58 UCA", "result": "only weak reactivity"},
      {"measurement": "affinity for CH01 UCA", "setting": "CH01-04 UCA", "result": "significant affinity"},
      {"measurement": "binding to BnAb PG9", "setting": "BnAb PG9 [1]", "result": "bind"},
      {"measurement": "binding to BnAb CH01", "setting": "BnAb CH01 [2]", "result": "bind"},
      {"measurement": "affinity for PG9 UCA", "setting": "PG9 UCA", "result": "significant affinity"}
    ]},
    {"compound": "aglycone: V1V2 peptide of SEQ ID NO: 9 with zero glycans (ITDEVRNCSFNMTTELRDKKQKVHALFYKLDIVPI)", "values": [
      {"measurement": "binding to BnAb PG9", "setting": "BnAb PG9 [1]", "result": "not observed"},
      {"measurement": "binding to PG9", "setting": "BnAb PG9 [3]", "result": "did not show binding"},
      {"measurement": "binding to CH01", "setting": "BnAb CH01 [4]", "result": "did not show binding"},
      {"measurement": "binding to BnAb CH01", "setting": "BnAb CH01 [2]", "result": "not observed"}
    ]},
    {"compound": "CC(=O)N[C@H]1[C@H](O[C@H]2[C@H](O)[C@@H](NC(C)=O)C(O)O[C@@H]2CO)O[C@H](CO)[C@@H](O[C@@H]2O[C@H](CO[C@H]3O[C@H](CO[C@H]4O[C@H](CO)[C@@H](O)[C@H](O)[C@@H]4O[C@H]4O[C@H](CO)[C@@H](O)[C@H](O)[C@@H]4O)[C@@H](O)[C@H](O[C@H]4O[C@H](CO)[C@@H](O)[C@H](O)[C@@H]4O[C@H]4O[C@H](CO)[C@@H](O)[C@H](O)[C@@H]4O)[C@@H]3O)[C@@H](O)[C@H](O[C@H]3O[C@H](CO)[C@@H](O)[C@H](O)[C@@H]3O[C@H]3O[C@H](CO)[C@@H](O)[C@H](O)[C@@H]3O[C@H]3O[C@H](CO)[C@@H](O)[C@H](O)[C@@H]3O)[C@@H]2O)[C@@H]1O", "note": "(stereo partly drawn) [Man9 glycan, Man9GlcNAc2]", "values": [
      {"measurement": "binding to V1V2 mAb PGT145", "setting": "V1V2 mAb PGT145", "result": "no binding"},
      {"measurement": "affinity of PGT128 binding to free glycan", "setting": "PGT128 [5]", "result": "affinities in μM"},
      {"measurement": "2G12 binding to free glycan", "setting": "2G12", "result": "only detected at the highest concentration"},
      {"measurement": "affinity of PGT125 binding to free glycan", "setting": "PGT125", "result": "affinities in μM"},
      {"measurement": "binding to non-neutralizing V3 mAb 19b", "setting": "[6]", "result": "no binding"},
      {"measurement": "binding of PGTs 125-128 and 130 on glycan arrays", "setting": "PGTs 125-128 and 130", "result": "showed binding"}
    ]},
    {"compound": "Man5 construct: V1V2 glycopeptide (SEQ ID NO: 9) bearing two N-linked Man5GlcNAc2 at N160 and N156 (ITDEVRN(Man5GlcNAc2)CSFN(Man5GlcNAc2)MTTELRDKKQKVHALFYKLDIVPI)", "values": [
      {"measurement": "reactivity of mAb CH58", "setting": "RV144 mAb CH58", "result": "almost no affinity"},
      {"measurement": "reactivity of CH58 UCA", "setting": "CH58 UCA", "result": "almost no affinity"},
      {"measurement": "affinity for CH01 UCA", "setting": "CH01-04 UCA", "result": "to a lesser extent"},
      {"measurement": "binding to BnAb PG9", "setting": "BnAb PG9 [1]", "result": "bind"},
      {"measurement": "binding to BnAb CH01", "setting": "BnAb CH01 [2]", "result": "bind"}
    ]},
    {"compound": "CC(=O)N[C@H]1[C@H](O[C@H]2[C@H](O)[C@@H](NC(C)=O)C(O)O[C@@H]2CO)O[C@H](CO)[C@@H](O[C@@H]2O[C@H](CO[C@H]3O[C@H](CO)[C@@H](O)[C@H](O)[C@@H]3O)[C@@H](O)[C@H](O[C@H]3O[C@H](CO)[C@@H](O)[C@H](O)[C@@H]3O)[C@@H]2O)[C@@H]1O", "note": "(stereo partly drawn) [Man3 oligosaccharide, Man3GlcNAc2]", "values": [
      {"measurement": "binding of PGT128 on glycan arrays", "setting": "PGT128 [7]", "result": "not observed"},
      {"measurement": "binding to BnAb PG9", "setting": "BnAb PG9 [1]", "result": "not observed"},
      {"measurement": "binding to BnAb CH01", "setting": "BnAb CH01 [2]", "result": "not observed"}
    ]},
    {"compound": "CC(=O)N[C@@H]1[C@@H](O)[C@H](O[C@@H]2O[C@H](CO)[C@@H](O[C@H]3O[C@H](CO[C@H]4O[C@H](CO[C@H]5O[C@H](CO)[C@@H](O)[C@H](O)[C@@H]5O[C@H]5O[C@H](CO)[C@@H](O)[C@H](O)[C@@H]5O)[C@@H](O)[C@H](O[C@H]5O[C@H](CO)[C@@H](O)[C@H](O)[C@@H]5O)[C@@H]4O)[C@@H](O)[C@H](O[C@H]4O[C@H](CO)[C@@H](O)[C@H](O)[C@@H]4O[C@H]4O[C@H](CO)[C@@H](O)[C@H](O)[C@@H]4O[C@H]4O[C@H](CO)[C@@H](O)[C@H](O)[C@@H]4O)[C@@H]3O)[C@H](O)[C@H]2NC(C)=O)[C@@H](CO)O[C@H]1O", "note": "[Man8, reference compound]", "values": [
      {"measurement": "binding of PGTs 125-128 and 130 on glycan arrays", "setting": "PGTs 125-128 and 130", "result": "showed binding"}
    ]}
  ]
}
